Some results are limits rather than exact numbers.

Among the data in EP4660182A1, “NAV1.7- AND/OR NAV1.8-INHIBITING ARYL PYRIDINE COMPOUNDS, PROCESSES FOR THE PREPARATION THEREOF, COMPOSITIONS, USES, METHODS FOR TREATMENT USING SAME, AND KITS” (Eurofarma Laboratórios S.A., priority 2023, dated 2024) are IC50 values, retold here.

For test [1], the target named is T1, human sodium channels Nav 1.8 (Homo sapiens, UniProt Q9Y5Y9).
T1 construct: expressed in transfected cells
The experiment in a line: Automated whole-cell voltage-clamp (ScreenPatch 384P) sodium current block, Nav 1.8. Format: cell-based. The note with it: CHO cells stably expressing human Nav 1.8; inactivation step -40 mV 8 s, test step 10 mV (TP1A); eight concentrations; exposure at least five minutes; room temperature; read-out: Nav1.8 IC50. As to the method:
(§1) Biological assays were performed on Chinese hamster ovary (CHO) cells that express human sodium channels Nav 1.8 or Nav 1.7 in a stable manner.
(§2) The experimental protocol voltage-clamp using the whole cell configuration was established on the automated ScreenPatch® 384P platform (SP384PE, Nanion Technologies, Livingston, NJ) and the results were recorded with a Nanion 384-well Patch Clamp chip (NPC) (Nanion Technologies, Livingston, NJ).
(§3) Formula I compounds were diluted in eight concentrations in the extracellular solution composed of saline solution, buffered with HEPES (mM): NaCl, 137; KCl, 4; CaCl2, 3,8; MgCl2, 1; HEPES, 10; Glucose, 10; pH 7.4. The […], 50; CsF, 90; MgCl2, 5; EGTA, 5; HEPES, 10; pH 7.2. The duration of exposure of each compound with cells expressing Nav 1.7 or Nav 1.8 was at least five minutes and the assays were performed at room temperature.
(§4) The measurements of the sodium currents of Nav 1.8 and Nav 1.7 were obtained using the voltage protocol described below.
(§5) A holding voltage of -100 mV was established followed by an inactivation voltage step at -40 mV for 8 seconds, followed by a step of -100 mV for 20 ms, followed by a 20 ms step for 10 mV for Nav 1.8 or 0 mV for Nav 1.7 (TP1A) before returning to the holding voltage of -100 mV.
(§6) The protocol was repeated at a frequency of 0.05 Hz and the amplitude of the current was quantified throughout the recording of the TP1A phase. The variation in the amplitude of the peak current was evaluated according to the formula described below, after exposing the cells expressing the channels to each concentration of the different compounds: % Block = (1−(ITP1A,molecule/ITP1A,basal)×100%, [formula] wherein ITP1A,basal and ITP1A,molecule represent the peaks of sodium current input into TP1A before exposure to the compound and in the presence of the compound, respectively.
(§7) Data were obtained by nonlinear regression (nonlinear least squares) with XLfit for Excel (Microsoft, Redmond, WA).
(§8) The compounds were tested in at least one assay to obtain the value of CI50. For compounds that were tested in two or more assays, the results are described as the means of the CI50 values.

Test [2] addresses T2, human sodium channels Nav 1.7 (Homo sapiens, UniProt Q15858).
T2 construct: expressed in transfected cells
Description: Automated whole-cell voltage-clamp (ScreenPatch 384P) sodium current block, Nav 1.7. The test is classed as cell-based. The following applies: CHO cells stably expressing human Nav 1.7; inactivation step -40 mV 8 s, test step 0 mV (TP1A); eight concentrations; exposure at least five minutes; room temperature; read-out: Nav1.7 IC50. The procedure:
as §1, §2, §3, §4, §5, §6, §7, §8

T2 sequence (Q15858 whole entry): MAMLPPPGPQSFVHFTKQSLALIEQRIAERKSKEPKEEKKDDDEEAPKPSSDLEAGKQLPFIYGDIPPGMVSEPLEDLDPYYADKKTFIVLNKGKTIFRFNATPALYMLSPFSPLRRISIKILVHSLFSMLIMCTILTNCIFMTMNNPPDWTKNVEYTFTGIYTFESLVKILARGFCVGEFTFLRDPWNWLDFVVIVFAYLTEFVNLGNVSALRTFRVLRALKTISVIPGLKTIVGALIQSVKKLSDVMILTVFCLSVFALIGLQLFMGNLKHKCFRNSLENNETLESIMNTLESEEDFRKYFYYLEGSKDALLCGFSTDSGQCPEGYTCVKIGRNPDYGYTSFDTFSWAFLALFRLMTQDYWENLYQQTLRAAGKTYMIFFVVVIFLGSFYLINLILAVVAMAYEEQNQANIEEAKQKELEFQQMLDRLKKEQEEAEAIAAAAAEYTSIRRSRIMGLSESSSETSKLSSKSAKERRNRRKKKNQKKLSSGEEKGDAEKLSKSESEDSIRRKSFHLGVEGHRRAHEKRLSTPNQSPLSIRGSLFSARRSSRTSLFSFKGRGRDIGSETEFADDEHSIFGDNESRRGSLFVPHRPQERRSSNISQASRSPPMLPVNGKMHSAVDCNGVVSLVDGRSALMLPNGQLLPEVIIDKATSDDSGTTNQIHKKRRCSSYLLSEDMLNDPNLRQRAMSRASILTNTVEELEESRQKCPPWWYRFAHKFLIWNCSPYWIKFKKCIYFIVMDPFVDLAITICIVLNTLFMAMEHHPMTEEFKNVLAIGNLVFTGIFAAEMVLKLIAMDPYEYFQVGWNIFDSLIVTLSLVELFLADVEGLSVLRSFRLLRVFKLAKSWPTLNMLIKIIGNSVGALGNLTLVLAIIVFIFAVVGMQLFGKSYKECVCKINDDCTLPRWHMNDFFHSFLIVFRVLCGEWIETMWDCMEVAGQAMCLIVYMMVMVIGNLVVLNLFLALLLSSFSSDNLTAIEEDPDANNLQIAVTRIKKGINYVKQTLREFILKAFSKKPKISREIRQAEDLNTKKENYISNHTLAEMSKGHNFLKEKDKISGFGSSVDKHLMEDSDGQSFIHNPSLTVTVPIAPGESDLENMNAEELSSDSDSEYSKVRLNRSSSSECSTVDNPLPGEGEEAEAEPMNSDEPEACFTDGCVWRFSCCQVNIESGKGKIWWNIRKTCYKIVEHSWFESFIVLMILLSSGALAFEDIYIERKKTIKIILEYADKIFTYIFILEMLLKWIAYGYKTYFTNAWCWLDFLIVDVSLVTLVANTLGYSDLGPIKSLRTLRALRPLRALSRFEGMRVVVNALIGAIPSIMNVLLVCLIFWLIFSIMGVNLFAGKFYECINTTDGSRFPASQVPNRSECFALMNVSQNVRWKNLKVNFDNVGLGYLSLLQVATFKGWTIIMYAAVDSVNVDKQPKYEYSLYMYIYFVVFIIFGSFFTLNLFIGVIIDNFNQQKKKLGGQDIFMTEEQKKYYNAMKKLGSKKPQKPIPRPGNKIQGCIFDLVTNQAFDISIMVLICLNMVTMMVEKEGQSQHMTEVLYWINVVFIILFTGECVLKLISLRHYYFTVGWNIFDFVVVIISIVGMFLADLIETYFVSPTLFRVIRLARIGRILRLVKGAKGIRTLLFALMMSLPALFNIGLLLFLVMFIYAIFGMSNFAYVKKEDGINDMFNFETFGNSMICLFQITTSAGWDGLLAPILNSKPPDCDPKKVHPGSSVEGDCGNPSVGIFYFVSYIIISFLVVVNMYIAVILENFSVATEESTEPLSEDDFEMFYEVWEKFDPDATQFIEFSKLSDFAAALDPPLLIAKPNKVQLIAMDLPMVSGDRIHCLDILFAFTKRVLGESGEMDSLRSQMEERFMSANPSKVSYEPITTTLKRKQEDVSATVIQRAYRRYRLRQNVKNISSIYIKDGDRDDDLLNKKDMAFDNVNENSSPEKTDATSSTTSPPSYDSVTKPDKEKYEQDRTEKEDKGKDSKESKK
T1 sequence (Q9Y5Y9 whole entry): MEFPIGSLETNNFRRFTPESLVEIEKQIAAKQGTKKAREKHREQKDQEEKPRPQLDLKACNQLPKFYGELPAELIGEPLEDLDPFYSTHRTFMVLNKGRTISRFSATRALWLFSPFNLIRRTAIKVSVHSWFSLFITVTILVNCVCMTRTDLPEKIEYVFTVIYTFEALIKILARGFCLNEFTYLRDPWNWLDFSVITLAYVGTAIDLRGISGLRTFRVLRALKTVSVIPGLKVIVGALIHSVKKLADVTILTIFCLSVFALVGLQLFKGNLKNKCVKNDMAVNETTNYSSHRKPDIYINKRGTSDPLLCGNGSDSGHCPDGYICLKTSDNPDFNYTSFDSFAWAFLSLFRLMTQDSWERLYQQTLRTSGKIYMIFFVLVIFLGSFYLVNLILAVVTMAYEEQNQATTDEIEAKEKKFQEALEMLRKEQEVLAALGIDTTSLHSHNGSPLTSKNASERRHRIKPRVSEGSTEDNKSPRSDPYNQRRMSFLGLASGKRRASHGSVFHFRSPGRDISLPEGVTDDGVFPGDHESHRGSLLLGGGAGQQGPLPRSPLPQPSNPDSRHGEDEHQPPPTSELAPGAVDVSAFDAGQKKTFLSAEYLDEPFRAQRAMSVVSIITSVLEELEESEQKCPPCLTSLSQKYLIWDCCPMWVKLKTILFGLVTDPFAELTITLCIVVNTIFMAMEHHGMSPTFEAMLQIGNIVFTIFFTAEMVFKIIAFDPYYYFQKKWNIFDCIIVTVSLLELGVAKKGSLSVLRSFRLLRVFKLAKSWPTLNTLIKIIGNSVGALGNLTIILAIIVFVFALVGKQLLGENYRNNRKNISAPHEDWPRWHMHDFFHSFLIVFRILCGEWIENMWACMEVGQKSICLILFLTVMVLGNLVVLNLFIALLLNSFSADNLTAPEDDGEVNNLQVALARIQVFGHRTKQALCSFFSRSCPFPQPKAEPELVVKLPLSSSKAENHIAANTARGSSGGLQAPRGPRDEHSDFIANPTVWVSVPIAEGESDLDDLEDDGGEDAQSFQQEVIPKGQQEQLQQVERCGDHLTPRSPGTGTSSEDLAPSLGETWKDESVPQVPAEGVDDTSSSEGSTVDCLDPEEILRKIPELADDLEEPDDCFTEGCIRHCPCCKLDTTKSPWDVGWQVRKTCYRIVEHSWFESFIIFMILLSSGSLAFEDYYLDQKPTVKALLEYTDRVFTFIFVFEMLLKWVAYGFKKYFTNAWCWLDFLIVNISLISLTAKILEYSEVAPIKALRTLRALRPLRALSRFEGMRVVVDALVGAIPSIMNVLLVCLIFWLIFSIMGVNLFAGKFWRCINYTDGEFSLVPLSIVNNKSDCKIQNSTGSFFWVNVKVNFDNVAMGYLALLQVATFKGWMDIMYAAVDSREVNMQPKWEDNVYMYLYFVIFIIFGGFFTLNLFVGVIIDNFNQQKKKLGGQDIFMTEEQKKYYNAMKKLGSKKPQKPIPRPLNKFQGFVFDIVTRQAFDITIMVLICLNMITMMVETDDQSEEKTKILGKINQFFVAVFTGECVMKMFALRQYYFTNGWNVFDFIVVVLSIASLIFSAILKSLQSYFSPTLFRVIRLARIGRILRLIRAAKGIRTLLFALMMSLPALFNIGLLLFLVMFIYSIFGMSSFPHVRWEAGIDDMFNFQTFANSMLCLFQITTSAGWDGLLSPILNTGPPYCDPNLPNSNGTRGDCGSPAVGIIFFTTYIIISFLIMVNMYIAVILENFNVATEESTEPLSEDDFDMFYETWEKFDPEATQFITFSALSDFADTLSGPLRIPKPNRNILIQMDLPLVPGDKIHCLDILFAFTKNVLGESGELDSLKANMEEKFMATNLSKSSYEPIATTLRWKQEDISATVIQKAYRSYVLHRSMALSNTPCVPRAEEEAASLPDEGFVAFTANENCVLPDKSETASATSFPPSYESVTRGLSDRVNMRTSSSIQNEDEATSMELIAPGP

On to `CCOc1ccc(-c2cnc(O)c(C(=O)N/N=C/c3cc(OC)ccc3F)n2)cn1` [Compound 68, (E)-6-(6-ethoxypyridine-3-yl)-N'-(2-fluoro-5-methoxybenzylidene)-3-hydroxypyrazine-2-carbohydrazide], for which the IC50 in test [1] and in test [2] was > 1000 nM throughout.
As for `CCOc1ccc(-c2nc(C(=O)N/N=C/c3cccn3C)cnc2O)cn1` [Compound 69, (E)-6-(6-ethoxypyridine-3-yl)-5-hydroxy-N'-((1-methyl-1H-pyrrole-2-yl)methylene)pyrazine-2-carbohydrazide], the IC50 in test [1] and in test [2] was > 1000 nM throughout.
For `CCOc1ccc(-c2cnc(O)c(C(=O)N/N=C/c3cccn3C)n2)cn1` [Compound 70, (E)-6-(6-ethoxypyridine-3-yl)-3-hydroxy-N'-((1-methyl-1H-pyrrole-2-yl)methylene)pyrazine-2-carbohydrazide], the IC50 in test [1] and in test [2] was > 1000 nM throughout.
As for `CCOc1ccc(-c2cccc(C(=O)N/N=C/c3cc(OC)cnc3F)n2)cn1` [Compound 71, (E) -6'-ethoxy-N'-((2-fluoro-5-methoxypyridine-3-yl)methylene)-[2,3'-bipyridine]-6-carbohydrazide], the concentration for half-maximal inhibition (IC50) is < 500 nM in test [1] and 500 to 1000 nM in test [2].
In the case of `CCOc1ccc(-c2nccc(C(=O)N/N=C/c3cc(OC)cnc3F)n2)cn1` [Compound 72, (E)-2-(6-ethoxypyridine-3-yl)-N'-((2-fluoro-5-methoxypyridine-3-yl)methylene) pyrimidine-4-carbohydrazide], the IC50 in test [1] is < 500 nM; in test [2], > 1000 nM.
The like results for `CCOc1ccc(-c2ccnc(C(=O)N/N=C/c3cc(OC)cnc3F)n2)cn1` [Compound 73, (E)-4-(6-ethoxypyridine-3-yl)-N'-((2-fluoro-5-methoxypyridine-3-yl)methylene) pyrimidine-2-carbohydrazide] were, in that order, 500 to 1000 nM and > 1000 nM.
The like results for `CCOc1ccc(-c2cncc(C(=O)N/N=C/c3cc(OC)cnc3F)c2)cn1` [Compound 74, (E)-6'-ethoxy-N'-((2-fluoro-5-methoxypyridine-3-yl)methylene)-[3,3'-bipyridine]-5-carbohydrazide] were, in that order, > 1000 nM and > 1000 nM.
The like results for `CCOc1ccc(-c2nc(C(=O)N/N=C/c3cc(OC)cnc3F)cn(C)c2=O)cn1` [Compound 75, (E)-6-(6-ethoxypyridine-3-yl)-N'-((2-fluoro-5-methoxypyridine-3-yl)methylene)-4-methyl-5-oxo-4,5-dihydropyrazine-2-carbohydrazide] were, in that order, > 1000 nM and > 1000 nM.
For `CCOc1ccc(-c2nc(C(=O)N/N=C/c3cc(OC)ccc3F)cn(C)c2=O)cn1` [Compound 76, (E)-6-(6-ethoxypyridine-3-yl)-N'-(2-fluoro-5-methoxybenzylidene)-4-methyl-5-oxo-4,5-dihydropyrazine-2-carbohydrazide], the IC50 in test [1] and in test [2] was > 1000 nM each time.
Take `COc1ccc(F)c(/C=N/NC(=O)c2cncc(-c3ccc(OC4CC4)nc3)n2)c1` [Compound 77, (E)-6-(6-cyclopropoxypyridine-3-yl)-N'-(2-fluoro-5-methoxybenzylidene)pyrazine-2-carbohydrazide]: the IC50 in test [1] and in test [2] was < 500 nM each time.
Consider `COc1cc(/C=N/NC(=O)c2cncc(-c3ccc(OC4CC4)nc3)n2)c(F)cc1F` [Compound 78, (E)-6-(6-cyclopropoxypyridine-3-yl)-N'-(2,4-difluoro-5-methoxybenzylidene) pyrazine-2-carbohydrazide], for which the concentration for half-maximal inhibition (IC50) in test [1] and in test [2] was < 500 nM in each case.
Turning to `CC(C)Oc1ccc(F)c(/C=N/NC(=O)c2cncc(-c3ccc(OC4CC4)nc3)n2)c1` [Compound 79, (E)-6-(6-cyclopropoxypyridine-3-yl)-N'-(2-fluoro-5-isopropoxybenzylidene) pyrazine-2-carbohydrazide], the IC50 in test [1] and in test [2] was < 500 nM throughout.
In the case of `CCOc1ccc(F)c(/C=N/NC(=O)c2cncc(-c3ccc(OC4CC4)nc3)n2)c1` [Compound 80, (E)-6-(6-cyclopropoxypyridine-3-yl)-N'-(5-ethoxy-2-fluorobenzylidene)pyrazine-2-carbohydrazide], the IC50 in test [1] is < 500 nM; in test [2], > 1000 nM.
`COc1cc(/C=N/NC(=O)c2cncc(-c3ccc(OC4CC4)nc3)n2)ccc1F` [Compound 81, (E)-6-(6-cyclopropoxypyridine-3-yl)-N'-(4-fluoro-3-methoxybenzylidene)pyrazine-2-carbohydrazide]: the IC50 in test [1] is < 500 nM; in test [2] it was 500 to 1000 nM.
Regarding `O=C(N/N=C/c1cc(OC2CC2)ccc1F)c1cncc(-c2ccc(OC3CC3)nc2)n1` [Compound 82, (E)-N'-(5-cyclopropoxy-2-fluorobenzylidene)-6-(6-cyclopropoxypyridine-3-yl)pyrazine-2-carbohydrazide], the IC50 in test [1] and in test [2] was < 500 nM each time.
For `COc1ccc(F)c(/C=N/NC(=O)c2cncc(-c3ccc(OC(F)(F)F)nc3)n2)c1` [Compound 83, (E)-N'-(2-fluoro-5-methoxybenzylidene)-6-(6-(trifluoromethoxy)pyridine-3-yl)pyrazine-2-carbohydrazide], the figures for the IC50 in test [1] and in test [2] were < 500 nM and > 1000 nM, respectively.
As to `O=C(N/N=C/c1ccccn1)c1cncc(-c2ccc(OC(F)(F)F)nc2)n1` [Compound 84, (E)-N'-(pyridine-2-ylmethylene)-6-(6-(trifluoromethoxy)pyridine-3-yl)pyrazine-2-carbohydrazide], the IC50 in test [1] and in test [2] was > 1000 nM each time.
On to `COc1ccnc(/C=N/NC(=O)c2cncc(-c3ccc(OC(F)(F)F)nc3)n2)c1` [Compound 85, (E)-N'-((4-methoxypyridine-2-yl)methylene)-6-(6-(trifluoromethoxy)pyridine-3-yl)pyrazine-2-carbohydrazide], for which the values for the half-inhibitory concentration (IC50) in test [1] and in test [2] were < 500 nM and > 1000 nM, respectively.
On to `O=C(N/N=C/c1cccnc1)c1cncc(-c2ccc(OC(F)(F)F)nc2)n1` [Compound 86, (E)-N'-(pyridine-3-ylmethylene)-6-(6-(trifluoromethoxy)pyridine-3-yl)pyrazine-2-carbohydrazide], for which the half-inhibitory concentration (IC50) in test [1] and in test [2] was > 1000 nM in each case.
On to `O=C(N/N=C/c1ccncc1)c1cncc(-c2ccc(OC(F)(F)F)nc2)n1` [Compound 87, (E)-N'-(pyridine-4-ylmethylene)-6-(6-(trifluoromethoxy)pyridine-3-yl)pyrazine-2-carbohydrazide], for which the IC50 in test [1] and in test [2] was > 1000 nM in each case.
With `Cc1ccccc1/C=N/NC(=O)c1cncc(-c2ccc(OC(F)(F)F)nc2)n1` [Compound 88, (E)-N'-(2-methylbenzylidene)-6-(6-(trifluoromethoxy)pyridine-3-yl)pyrazine-2-carbohydrazide], the IC50 in test [1] and in test [2] was < 500 nM in each case.
As to `O=C(N/N=C/c1ccccc1F)c1cncc(-c2ccc(OC(F)(F)F)nc2)n1` [Compound 89, (E)-N'-(2-fluorobenzylidene)-6-(6-(trifluoromethoxy)pyridine-3-yl)pyrazine-2-carbohydrazide], the IC50 is < 500 nM in test [1] and > 1000 nM in test [2].
The like results for `COc1cccc(/C=N/NC(=O)c2cncc(-c3ccc(OC(F)(F)F)nc3)n2)c1` [Compound 90, (E)-N'-(3-methoxybenzylidene)-6-(6-(trifluoromethoxy)pyridine-3-yl)pyrazine-2-carbohydrazide] were, in that order, < 500 nM and > 1000 nM.
The like results for `CCOc1ccc(F)c(/C=N/NC(=O)c2cncc(-c3ccc(OC(F)(F)F)nc3)n2)c1` [Compound 91, (E)-N'-(5-ethoxy-2-fluorobenzylidene)-6-(6-(trifluoromethoxy)pyridine-3-yl)pyrazine-2-carbohydrazide] were, in that order, < 500 nM and > 1000 nM.
As to `CC(C)Oc1ccc(F)c(/C=N/NC(=O)c2cncc(-c3ccc(OC(F)(F)F)nc3)n2)c1` [Compound 92, (E)-N'-(2-fluoro-5-isopropoxybenzylidene)-6-(6-(trifluoromethoxy)pyridine-3-yl)pyrazine-2-carbohydrazide], the IC50 in test [1] and in test [2] was < 500 nM in each case.

What is called IC50 is the concentration needed to halve the response being measured.
